Columns and labels:
Type in all cases: cell-based
[1] = test system: human iPS-derived cardiomyocytes (hiPS-CM); test: LDH release in hiPS-CM; settings: maximal available concentration
Protocol: (§1) As contrast to activity, toxicity of top six similars and lead compounds was determined by a multiplex measurement of caspase activation and membrane integrity (using LDH release and inclusion of the CellTox Green dye). Briefly, HCFs were seeded as before. After 24 h, cells were treated with serial dilutions of compounds with additional 0.1% CellTox™ Green dye (Promega, #G8741). After 24 h incubation, 5 µL medium was removed from each well, mixed with 95 µL LDH Storage buffer (Promega, #J2380) and frozen for later analysis. 95 µL Caspase-Glo® 3/7 reagent (Promega, #G8090) was added to each well, and after 60 min of incubation luminescence was measured in a Synergy HT. Afterwards, micrographs of brightfield and green fluorescence were taken using a Cytation 1 (BioTek) automated microscope maintaining 37 °C and 5% CO2. Wells were manually checked for co-localization of fluorescence signal with cells in brightfield. On the next day, supernatants in LDH Storage buffer were thawed, and 50 µL was mixed with 50 µL of LDH Detection reagent and luminescence was measured after 60 min of incubation. Dose–response curves were determined as described before. To determine toxicity of the top 3 anti-fibrotic similars in hiPS-CM, 20,000 cells/well were seeded, treated and analysed as above, devoid the fluorescent dye steps.

[2] = test system: human iPS-derived cardiomyocytes (hiPS-CM); test: Caspase-3/7 activation in hiPS-CM; settings: maximal available concentration
Protocol: as §1

[3] = test system: human cardiac fibroblasts (HCF); test: BrdU incorporation, HCF proliferation (first screen)
Protocol: 96-well plates (TPP) were coated with 0.1% gelatine and seeded with 7500 HCFs/well. After 72 h, medium was exchanged with serial dilutions of compounds in FGM-3 + 1.6% DMSO + 1% 5-bromo-2′-deoxyuridine (BrdU, Roche, #11647229001), prepared in additional plates. After 24 h, cells were washed twice with DPBS (Gibco, #14190144) before incubation with anti-BrdU:POD (Roche, #11647229001) for 60 min (RT). Readout was performed by measurement of absorbance at 370 nm + 490 nm in a Synergy HT (BioTek) microplate reader. […] As validation, HCF were seeded as before, but treated with serial dilutions of compounds after 24 h. […] After 60 min of incubation (37 °C, in the dark), absorbance at 450 nm + 630 nm was measured maintaining 37 °C and analysed as described before.
To assess screening quality, quality acceptance criteria Z′ (Z prime), SW (signal window), S:B (signal-to-background), S:N (signal-to-noise) were determined following. Average Z′ ≥ 0.5 and SW ≥ 2 were required to accept the screening overall, whereas single plates were rejected from analysis if Z′ < 0.3 or SW < 1.

[4] = test system: human living myocardial slices; test: Ex vivo human living myocardial slices, qPCR gene expression; settings: 48 h
Text: Myocardial slices were generated from human left ventricular heart specimens taken from failing hearts at the time of transplantation. Tissue was obtained from the Clinic for Cardiac, Thoracic, Transplant and Vascular Surgery at the Hannover Medical School (MHH), Hannover, Germany. Patients provided informed consent to the scientific use of the explanted tissue.
The preparation and culture of myocardial slices has been described before. Briefly, human heart specimens were sliced into 300 µm thick slices using a vibrating microtome (Campden Instruments, #7000smz-2) while in ice-cold 30 mM 2,3-butanedione monoxime + 1 mM D-glucose + 10 mM HEPES + 6 mM KCl + 140 mM NaCl + 1 mM MgCl2 + 1.8 mM CaCl2 (cardioplegic Tyrode’s solution), before being trimmed into approx. 7 × 7 mm pieces of aligned muscle fibres.
After 48 h in culture, myocardial slices were frozen in liquid nitrogen and stored at −80 °C for further gene expression analysis.
(§2) A mix of forward and reverse primer pairs (10 µM, Eurofins) or 10 × Quantitect Primer Assay (Qiagen, #249900) was used for mRNA. To measure miRNA, RNA was reverse-transcribed using the miRNA TaqMan MicroRNA Reverse Transcription Kit (Applied Biosystems, #4366597) with specific miRNA RT primers (ThermoFisher, #4427975). cDNA was diluted 1:3 with dH2O before qPCR with Absolute Blue qPCR Mix (Abgene, #AB-4136/B) and the specific Taqman probes (ThermoFisher, #4427975). Runs were performed in ViiA7 (Applied Biosystems) or QuantStudio 7 Flex (Applied Biosystems). Real-time qPCR data were analysed as described elsewhere.

[5] = test system: human cardiac fibroblasts (HCF); test: In vitro migration (scratch) assay of HCF; settings: 10 × EC50
Protocol: To assess migrative capabilities of HCF, cells were stained with 1:1000 1,1′-Dioctadecyl-3,3,3′,3′-Tetramethylindotricarbocyanine Iodide (DIR′) dye in FGM-3 for 20 min at 37 °C. Cells were washed with DPBS and seeded into 0.1% gelatine-coated 96-well plates at 30,000 cells per well. […] After 17 h and 24 h, plates were imaged again. Rate of migration was determined using the migrative index (MI).

[6] = test system: human cardiac fibroblasts (HCF); test: TaqMan Array Human MicroRNA Cards, miRNA deregulation in HCF
Protocol: PCR amplification of array cards was performed as instructed. After quality control of all real-time qPCRs, cT values were exported and all runs were merged into a single excel file. Recommended baseline correction using relative thresholds to correct for varying reconstitution rates of different Taqman probes was not performed. Low-expressed miRNAs with cT > 32 in more than 1 replicate per treatment were excluded from analysis, before samples were normalized to column mean. Multiple unpaired t tests were performed using GraphPad Prism, deregulations were accepted as discoveries if FDR ≤ 1% (using BKY adjustment). As miRNA identifiers were based on miRbase v14, we converted them to the latest v22 for further analysis using miRBaseConverter. 747 sequences could be converted correctly, while the remaining miRNAs were removed from miRbase due to incorrect annotation (e.g. the sequences of hsa-miR-886-3p and hsa-miR-886-5p are part of VTRNA2-1 [44]) or no evidence of human expression.

[7] = test system: human cardiac fibroblasts (HCF); test: miRNA mimic / inhibitor transfection before compound treatment, WST-1 readout
Protocol: as §2
To determine whether these miRNAs are part of and essential to the mechanism of action of the compounds, we transfected HCF with miR mimics or inhibitors of the miRNA candidates prior to compound treatment. If a miRNA is essential for the compounds’ mechanism, we would expect the absence of anti-proliferative effects after inhibition of this miRNA, whereas anti-proliferative effects would remain if the miRNA is rather a downstream element of the compound response.

[8] = test system: human cardiac fibroblasts (HCF); test: nCounter Fibrosis Panel mRNA profiling of HCF; settings: 24 h treatment
Protocol: Briefly, 100 ng/5µL isolated total RNA of HCF after 24 h treatment (RIN > 7.5 and […] > 88%) was mixed with the hybridization Master Mix and incubated at 65 °C for 20 h before loading on a nCounter® FLEX (Department of Pathology, Hannover Medical School, Germany). All run files (.RCC) were compiled into a single experiment using the nSolver analysis software. […] Reference genes for normalization were determined by nSolver using all samples (ACAD9, ARMH3, CNOT10, GUSB, MTMR14, NOL7, NUBP1, PGK1, PPIA, RPLP0, see supplemental Fig. 4e, f). We then used the Advanced analysis plugin (v2.0.115) including LOT as confounder variable and BY adjusted p value < 0.05 for identification of central deregulated pathways. Additionally, normalized counts were further analysed with GraphPad Prism using multiple unpaired t tests with FDR ≤ 5% after BKY adjustment and log2 |FC| ≥ 1.

[9] = test system: human cardiac fibroblasts (HCF); test: Global RNA sequencing of treated HCF
Text: The NEBNext Ultra II Directional RNA Kit was used to prepare the samples (the same as for the nCounter® Fibrosis Panel, see above) for subsequent deep sequencing on a NovaSeq PE50 (Illumina) at HZI Braunschweig (Germany). Reads were trimmed and mapped to the human genome hg38.79 using RNA STAR (v2.4.2a, [11]) by HZI Braunschweig. RAW read counts were further analysed on Galaxy (v3.38.3, usegalaxy.org, [2]) using the limma-voom method. Low-expressed transcripts without more than 0.25 CPM (counts per million reads mapped) in at least 3 samples (42,079 of 61,043) were filtered out, and TMM (trimmed mean of M values) was the method used to normalise library sizes. Changes in transcript expression were considered significant if FDR [4] ≤ 0.05 and log2 |FC| ≥ 1.3.

[10] = mean of DMSO minus mean of treatment

LDH release [1]	Caspase-3/7 activation [2]	Structure (SMILES)	inhibitory activity on HCF proliferation ([3]; BrdU incorporation)	EC50 fold lower than the EC50 of lycorine ([3]; HCF proliferation)	EC50 ([3]; Homo sapiens, Cardiac fibroblast, HCF, 24 h treatment, read-out: Effective conc. (BrdU), EC50 by BrdU assay)	FAP expression (qPCR) [4]	MMP2 expression (qPCR) [4]	HCF migration [5]	Mean of treatment, hsa-miR-28-3p-002446 ([6]; cT normalized to column mean)	Mean of treatment, hsa-miR-342-3p-002260 ([6]; cT normalized to column mean)	Difference / ΔCT, hsa-miR-28-3p-002446 [6, 10]	Difference / ΔCT, hsa-miR-342-3p-002260 [6, 10]	anti-proliferative effect after inhibition of hsa-miR-132-3p [7]	anti-proliferative effect after overexpression of hsa-miR-125a-5p [7]	deregulation of fibrosis panel genes / pathways [8]	downregulation of high- to medium-expressed collagen isoforms [9]	expression of FN1, PTN and BGN [9]	differentially expressed genes (DEGs) vs DMSO control ([9]; RNA sequencing)	expression of collagen isoforms ([9]; top 20 expressed isoforms)
increased LDH release	Caspase-3/7 activation	COc1cccc2c1C(=O)c1c(O)c3c(c(O)c1C2=O)C[C@@](O)(C(=O)CO)C[C@@H]3O[C@H]1C[C@H](N)[C@H](O)[C@H](C)O1 [doxorubicin]																	
		COC(=O)C[C@](O)(CCCC(C)(C)O)C(=O)O[C@@H]1C(OC)=C[C@]23CCCN2CCc2cc4c(cc2[C@H]13)OCO4 [lyco-s, homoharringtonine]	showed inhibitory activity	over 100 fold	34 nM	significant down-regulation	significant down-regulation	repressed migration only after several hours	-2.759	-3.581	0.9679	1.208	protected	partially protected against the anti-proliferative effect	repressed genes related to endothelial mesenchymal transition (EMT), ECM homeostasis as well as collagen biosynthesis	approx. 90%	significantly downregulated	over 4000	approx. tenfold
